Test results as given in PMC10855341, “Inhibition of Apoptosis in a Model of Ischemic Stroke Leads to Enhanced Cell Survival, Endogenous Neural Precursor Cell Activation and Improved Functional Outcomes” (International Journal of Molecular Sciences, 2024).

Test system: neural precursor cells (NPCs) from SVZ neurospheres
Experiment: In vitro NPC cell viability with cisplatin (DAPI+ counts)
Assay type: cell-based, adult mice (C57BL/6)
Conditions: 20 µM cisplatin alone, 8 h; mean ± SEM, n = 3 independent experiments
Experimental: NSC neurospheres were obtained from control […] C57BL/6 periventricular dissections, as described above. Neurospheres were collected and mechanically disassociated into single cells and plated in 96-well plates coated with 4% Matrigel (Corning 354234, Corning, NY, USA) at a density of 20,000 cells per well in 100 µL of SFM with […] epidermal growth factor (GIBCO, PMG8041, Waltham, MA, USA), […] basic fibroblast growth factor (GIBCO, PHG0266, Waltham, MA, USA) and 2 µg/mL heparin (Sigma-Aldrich, H3149, St. Louis, MO, USA) (referred to as growth factors). One day later, the media was removed and replaced with fresh SFM, growth factors, 20 µM cisplatin (Sigma-Aldrich, P4394, St. Louis, MO, USA) and 10 µM NWL283 (New World Laboratories, Laval, QC, Canada) in sterile PBS. The vehicle group received media containing SFM, growth factors and PBS.
To assess cell viability at 2 h and 8 h, cells were fixed with 4% PFA for 15 min and washed three times for 5 min in PBS. Cells were incubated for 10 min with 1:10,000 DAPI (Invitrogen, D130, Waltham, MA, USA), then washed three times for 5 min in PBS and imaged on an Axio Observer Zeiss microscope. DAPI cells were counted using ImageJ (https://imagej.net/ij/) analyze particle detection and then manually confirmed. Data were collected from three independent experiments.

SMILES: N.N.[Cl][Pt][Cl] [cisplatin]
- cell survival, DAPI+ cells: 49.09 ± 7.28 DAPI+ cells
